Measurements published in US12187742B2 (XRAD Therapeutics, Inc., priority 2018, dated 2025).
Where a name gives a salt, the structure may show the parent alone.

Experiments:
ATM = ATM (Homo sapiens (Human), UniProt Q13315); experiment: ATM in Cell Western Assay (pKAP1 in etoposide-treated MCF-7 cells); format: cell-based
Outline: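 After paraformaldehyde fixation and Triton X-100 permeabilization, immunostained plates were read by infrared scanning (ODYSSEY CLx). Compound was given as 10 doses, 3-fold dilutions from a 1 μM final top concentration.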

DNA-PK = DNA-PK (Homo sapiens (Human), UniProt P78527); experiment: DNA-PK Enzyme-Linked Immunosorbent Assay (phosphorylation of GST-p53 (1-101) peptide); format: biochemical; details: ELISA
Outline: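 Inhibition measured by 450 nm absorbance after HRP/TMB detection of phospho-Ser15 on immobilized GST-p53 (1-101). The kinase reaction used 0.1 μg/mL DNA-PK and 20 μM ATP, 1 h at 25 °C. Ten 3-fold compound dilutions, top final concentration 100 nM.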

[1] = MCF-7 cells, etoposide 100 μM, 1 hr, pKAP1 readout
[2] = pKAP1 in etoposide-treated MCF-7 cells

ATM, sequence (Q13315 whole entry): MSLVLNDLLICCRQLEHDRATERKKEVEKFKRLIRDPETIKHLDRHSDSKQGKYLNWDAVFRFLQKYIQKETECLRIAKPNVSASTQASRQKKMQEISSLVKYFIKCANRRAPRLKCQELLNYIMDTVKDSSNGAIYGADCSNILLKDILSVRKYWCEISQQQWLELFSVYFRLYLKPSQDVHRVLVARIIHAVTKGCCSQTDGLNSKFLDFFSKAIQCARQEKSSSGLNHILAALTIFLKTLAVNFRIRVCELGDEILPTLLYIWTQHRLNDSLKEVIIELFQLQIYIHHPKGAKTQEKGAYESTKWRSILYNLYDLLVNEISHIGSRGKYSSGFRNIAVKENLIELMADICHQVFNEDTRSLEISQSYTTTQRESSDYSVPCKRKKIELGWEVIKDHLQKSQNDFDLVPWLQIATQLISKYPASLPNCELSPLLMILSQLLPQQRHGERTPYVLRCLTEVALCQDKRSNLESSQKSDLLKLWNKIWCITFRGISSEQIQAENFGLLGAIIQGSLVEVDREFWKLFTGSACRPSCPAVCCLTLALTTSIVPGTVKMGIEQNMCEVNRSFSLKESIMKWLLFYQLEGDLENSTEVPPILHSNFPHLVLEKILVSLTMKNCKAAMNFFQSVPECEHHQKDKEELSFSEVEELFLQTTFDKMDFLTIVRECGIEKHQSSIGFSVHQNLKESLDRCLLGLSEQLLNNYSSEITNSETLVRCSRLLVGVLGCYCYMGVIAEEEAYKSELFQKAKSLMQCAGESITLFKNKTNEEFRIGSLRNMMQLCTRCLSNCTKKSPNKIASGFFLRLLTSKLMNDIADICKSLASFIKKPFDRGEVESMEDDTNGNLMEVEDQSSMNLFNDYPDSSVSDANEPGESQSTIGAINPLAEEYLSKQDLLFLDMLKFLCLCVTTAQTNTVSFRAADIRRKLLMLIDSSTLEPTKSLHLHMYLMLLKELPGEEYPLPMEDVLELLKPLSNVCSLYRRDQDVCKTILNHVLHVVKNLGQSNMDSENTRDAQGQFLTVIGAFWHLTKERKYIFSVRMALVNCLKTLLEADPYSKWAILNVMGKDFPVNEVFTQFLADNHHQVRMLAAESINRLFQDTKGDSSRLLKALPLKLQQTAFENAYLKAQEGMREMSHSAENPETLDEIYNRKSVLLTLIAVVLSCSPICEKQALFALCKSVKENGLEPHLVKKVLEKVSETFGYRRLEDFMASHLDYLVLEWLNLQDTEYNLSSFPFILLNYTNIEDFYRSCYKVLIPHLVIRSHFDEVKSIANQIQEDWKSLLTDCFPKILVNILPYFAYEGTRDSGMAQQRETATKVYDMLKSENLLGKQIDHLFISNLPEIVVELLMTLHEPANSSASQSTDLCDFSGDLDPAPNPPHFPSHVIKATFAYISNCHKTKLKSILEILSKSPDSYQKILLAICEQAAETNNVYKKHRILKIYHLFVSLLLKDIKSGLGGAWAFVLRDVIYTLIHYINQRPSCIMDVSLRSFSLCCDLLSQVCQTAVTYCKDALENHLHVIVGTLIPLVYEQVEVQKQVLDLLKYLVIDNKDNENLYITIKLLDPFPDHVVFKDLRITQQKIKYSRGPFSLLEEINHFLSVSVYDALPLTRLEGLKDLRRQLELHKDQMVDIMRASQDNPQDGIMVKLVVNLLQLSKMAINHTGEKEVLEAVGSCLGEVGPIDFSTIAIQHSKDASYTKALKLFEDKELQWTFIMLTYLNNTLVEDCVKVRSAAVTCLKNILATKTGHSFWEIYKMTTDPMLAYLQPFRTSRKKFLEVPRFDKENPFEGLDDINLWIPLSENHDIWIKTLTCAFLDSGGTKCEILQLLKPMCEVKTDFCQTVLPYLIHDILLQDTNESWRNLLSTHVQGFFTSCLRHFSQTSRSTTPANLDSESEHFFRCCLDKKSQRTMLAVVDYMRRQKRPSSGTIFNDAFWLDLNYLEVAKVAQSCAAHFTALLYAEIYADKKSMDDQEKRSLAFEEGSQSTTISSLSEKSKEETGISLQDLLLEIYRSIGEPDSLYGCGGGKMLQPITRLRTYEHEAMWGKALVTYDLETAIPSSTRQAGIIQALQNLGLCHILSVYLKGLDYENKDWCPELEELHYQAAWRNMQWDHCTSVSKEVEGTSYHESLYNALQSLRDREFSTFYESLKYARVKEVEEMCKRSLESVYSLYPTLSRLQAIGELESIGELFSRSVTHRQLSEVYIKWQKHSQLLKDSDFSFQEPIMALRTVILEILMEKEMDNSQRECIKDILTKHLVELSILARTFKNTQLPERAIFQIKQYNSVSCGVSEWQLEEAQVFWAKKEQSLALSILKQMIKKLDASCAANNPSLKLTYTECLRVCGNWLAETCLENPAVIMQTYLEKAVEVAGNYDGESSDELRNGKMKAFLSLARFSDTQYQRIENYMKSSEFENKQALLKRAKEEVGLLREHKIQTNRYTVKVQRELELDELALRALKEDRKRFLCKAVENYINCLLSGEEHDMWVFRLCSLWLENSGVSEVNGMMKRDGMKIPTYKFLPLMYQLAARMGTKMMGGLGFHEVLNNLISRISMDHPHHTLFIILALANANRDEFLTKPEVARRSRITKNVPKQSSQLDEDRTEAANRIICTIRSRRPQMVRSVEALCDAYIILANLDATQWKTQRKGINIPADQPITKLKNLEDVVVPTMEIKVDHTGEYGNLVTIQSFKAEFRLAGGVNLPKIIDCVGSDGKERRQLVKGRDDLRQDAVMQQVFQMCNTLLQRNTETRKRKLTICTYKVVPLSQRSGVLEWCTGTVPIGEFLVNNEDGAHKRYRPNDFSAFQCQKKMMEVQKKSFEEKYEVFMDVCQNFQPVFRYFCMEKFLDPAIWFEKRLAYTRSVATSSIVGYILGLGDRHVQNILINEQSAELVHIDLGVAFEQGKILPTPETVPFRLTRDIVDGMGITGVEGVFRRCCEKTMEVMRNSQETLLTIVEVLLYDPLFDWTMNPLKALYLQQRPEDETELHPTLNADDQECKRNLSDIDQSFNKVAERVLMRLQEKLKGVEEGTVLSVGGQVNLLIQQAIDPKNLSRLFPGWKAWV

SMILES	IC50 (ATM; [1])	IC50 (DNA-PK; ATP 20 μM)	IC50 (ATM; [2])	IC50 (DNA-PK; 20 μM ATP)
Cc1cc(S(=O)(=O)Nc2cc(-c3ccc4ncc5c(c4c3)C3(CCC3)C(=O)N5C)cnc2N2CCN(C)CC2)sn1 [Example 246, 3-Methyl-N-(5-(3′-methyl-2′-oxo-2′,3′-dihydrospiro[cyclobutane-1,1′-pyrrolo[2,3-c]quinolin]-8′-yl)-2-(4-methylpiperazin-1-yl)pyridin-3-yl)isothiazole-5-sulfonamide]	1 to 100 nM	< 0.5 nM	–	–
Cc1ccc(S(=O)(=O)Nc2cc(-c3ccc4ncc5c(c4c3)C3(CCC3)C(=O)N5C)cnc2OCCCN(C)C)cc1 [Example 145, N-(2-(3-(Dimethylamino)propoxy)-5-(3′-methyl-2′-oxo-2′,3′-dihydrospiro [cyclobulane-1,1′-pyrrolo[2,3-c]quinolin]-8′-yl)pyridin-3-yl)-4-methylbenzenesulfonamide hydrochloride]	1 to 100 nM	0.5 to 1 nM	–	–
CN1C(=O)C2(CCC2)c2c1cnc1ccc(-c3cnc(N4CCC(N5CCCCC5)CC4)c(NS(=O)(=O)N(C)C)c3)cc21 [Example 208, 8′-(6-{[1,4′-Bipiperidine]-1′-yl}-5-[(dimethylsulfamoyl)amino]pyridin-3-yl)-3′-methyl-2′,3′-dihydrospiro[cyclobutane-1,1′-pyrrolo[2,3-c]quinoline]-2′-one]	1 to 100 nM	< 0.5 nM	–	–
CN1CCCC(COc2ncc(-c3ccc4ncc5c(c4c3)C3(CC3)C(=O)N5C)cc2NS(=O)(=O)c2ccccc2)C1 (centres unmarked) [Example 84, N-(5-(3′-Methyl-2′-oxo-2′,3′-dihydrospiro[cyclopropane-1,1′-pyrrolo[2,3-c]quinolin]-8′-yl)-2-((1-methylpiperidin-3-yl)methoxy)pyridin-3-yl)benzenesulfonamide]	1 to 100 nM	1 to 100 nM	–	–
CN1C(=O)C2(CCC2)c2c1cnc1ccc(-c3cnc(OCCCN4CCCCC4)c(NS(=O)(=O)c4cscn4)c3)cc21 [Example 193, N-(5-(3′-Methyl-2′-oxo-2′,3′-dihydrospiro[cyclobutane-1,1′-pyrrolo[2,3-c]quinolin]-8′-yl)-2-(3-(piperidin-1-yl)propoxy)pyridin-3-yl)thiazole-4-sulfonamide hydrochloride]	1 to 100 nM	0.5 to 1 nM	–	–
CC(C)NCCOc1ncc(-c2cc3c(cc2F)ncc2c3[C@]3(C[C@@H](c4ccc(F)cc4)C3)C(=O)N2C)cc1NS(C)(=O)=O [Example 423, trans-N-(5-(7′-Fluoro-3-(4-fluorophenyl)-3′-methyl-2′-oxo-2′,3′-dihydrospiro[cyclobutane-1,1′-pyrrolo[2,3-c]quinolin]-8′-yl)-2-(2-(isopropylamino)ethoxy)pyridin-3-yl)methanesulfonamide]	–	–	1 to 100 nM	1 to 100 nM
CC(C)NCCOc1ncc(-c2cc3c(cc2F)ncc2c3[C@]3(C[C@H](c4cccc(Cl)c4)C3)C(=O)N2C)cc1NS(C)(=O)=O [Example 418, cis-N-(5-(3-(3-Chlorophenyl)-7′-fluoro-3′-methyl-2′-oxo-2′,3′-dihydrospiro[cyclobutane-1,1′-pyrrolo[2,3-c]quinolin]-8′-yl)-2-(2-(isopropylamino)ethoxy)pyridin-3-yl)methanesulfonamide]	–	–	1 to 100 nM	1 to 100 nM
CN(C)CCCOc1ncc(-c2ccc3ncc4c(c3c2)C2(CCC2)C(=O)N4C)cc1NS(=O)(=O)N1CCOCC1 [Example 136, N-(2-(3-(Dimethylamino)propoxy)-5-(3′-methyl-2′-oxo-2′,3′-dihydrospiro [cyclobutane-1,1′-pyrrolo[2,3-c]quinolin]-8′-yl)pyridin-3-yl)morpholine-4-sulfonamide hydrochloride]	1 to 100 nM	1 to 100 nM	–	–
CCS(=O)(=O)Nc1cc(-c2ccc3ncc4c(c3c2)C2(CCC2)C(=O)N4C)cnc1OCCCN(C)C [Example 238, N-(2-(3-(Dimethylamino)propoxy)-5-(3′-methyl-2′-oxo-2′,3′-dihydrospiro [cyclobutane-1,1′-pyrrolo[2,3-c]quinolin]-8′-yl)pyridin-3-yl) ethanesulfonamide]	1 to 100 nM	1 to 100 nM	–	–
CN1C(=O)C2(CC2)c2c1cnc1ccc(-c3cnc(Cl)c(NS(=O)(=O)c4ccccc4)c3)cc21 [Example 15, N-(2-Chloro-5-(3′-methyl-2′-oxo-2′,3′-dihydrospiro[cyclopropane-1,1′-pyrrolo[2,3-c]quinolin]-8′-yl)pyridin-3-yl)benzenesulfonamide]	1 to 100 nM	< 0.5 nM	–	–
CN1C(=O)C2(CCC2)c2c1cnc1ccc(-c3cnc(N4CCC(N5CCOCC5)CC4)c(NS(C)(=O)=O)c3)cc21 [Example 357, N-(5-(3′-Methyl-2′-oxo-2′,3′-dihydrospiro[cyclobutane-1,1′-pyrrolo[2,3-c]quinolin]-8′-yl)-2-(4-morpholinopiperidin-l-yl)Pyridin-3-yl)methanesulfonamide hydrochloride]	–	–	0.5 to 1 nM	0.5 to 1 nM
CN1C(=O)C2(CCC2)c2c1cnc1ccc(-c3cnc(N4CCC(N5CCCCC5)CC4)c(NS(=O)(=O)C4CC4)c3)cc21 [Example 207, N-(2-([1,4′-Bipiperidin]-1′-yl)-5-(3′-methyl-2′-oxo-2′,3′-dihydrospiro[cyclobutane-1,1′-pyrrolo[2,3-c]quinolin]-8′-yl)pyridin-3-yl)cyclopropanesulfonamide hydrochloride]	1 to 100 nM	< 0.5 nM	–	–
CN1C(=O)C2(CC2)c2c1cnc1cc(F)c(-c3cnc(OCCCN4CCCC4)c(NS(=O)(=O)c4ccccc4)c3)cc21 [Example 124, N-(5-(7′-Fluoro-3′-methyl-2′-oxo-2′,3′-dihydrospiro[cyclopropane-1,1′-pyrrolo[2,3-c]quinolin]-8′-yl)-2-(3-(pyrrolidin-1-yl)propoxy)pyridin-3-yl)benzenesulfonamide]	1 to 100 nM	1 to 100 nM	–	–
CCN(C)S(=O)(=O)Nc1cc(-c2ccc3ncc4c(c3c2)C2(CCC2)C(=O)N4C)cnc1N1CC(N(C)C)C1 [Example 339, 8′-{6-[3-(Dimethylamino)azetidin-1-yl]-5-{[ethyl(methyl)sulfamoyl]amino}pyridin-3-yl}-3′-methyl-2′,3′-dihydrospiro [cyclobutane-1,1′-pyrrolo[2,3-c]quinoline]-2′-one]	–	–	1 to 100 nM	1 to 100 nM
CC(C)NCCOc1ncc(-c2cc3c(cc2F)ncc2c3[C@]3(C[C@H](c4cccnc4)C3)C(=O)N2C)cc1NS(C)(=O)=O [Example 436, cis-N-(5-(7′-Fluoro-3′-methyl-2′-oxo-3-(pyridin-3-yl)-2′,3′-dihydrospiro[cyclobutane-1,1′-pyrrolo[2,3-c]quinolin]-8′-yl)-2-(2-(isopropylamino)ethoxy)pyridin-3-yl)methanesulfonamide]	–	–	1 to 100 nM	1 to 100 nM
CC(C)NCCOc1ncc(-c2cc3c(cc2F)ncc2c3[C@]3(C[C@H](c4ccccc4)C3)C(=O)N2C)cc1NS(C)(=O)=O [Example 414, cis-N-(5-(7′-Fluoro-3′-methyl-2′-oxo-3-phenyl-2′,3′-dihydrospiro[cyclobutane-1,1′-pyrrolo[2,3-c]quinolin]-8′-yl)-2-(2-(isopropylamino)ethoxy)pyridin-3-yl)methanesulfonamide hydrochloride]	–	–	1 to 100 nM	1 to 100 nM
Cl.[2H]C1([2H])N(CCCOc2ncc(-c3ccc4ncc5c(c4c3)C3(CCC3)C(=O)N5C)cc2NS(=O)(=O)c2ccc(C)nc2)C([2H])([2H])C([2H])([2H])C([2H])([2H])C1([2H])[2H] [Example 221, 6-Methyl-N-(5-(3′-methyl-2′-oxo-2′,3′-dihydrospiro[cyclobulane-1,1′-pyrrolo[2,3-c]quinolin]-8′-yl)-2-(3-(piperidin-1-yl-d10)propoxy)pyridin-3-yl)pyridine-3-sulfonamide hydrochloride]	1 to 100 nM	0.5 to 1 nM	–	–
CN(C)CCCOc1c(F)cc(-c2ccc3ncc4c(c3c2)C2(CC2)C(=O)N4C)cc1NS(=O)(=O)c1ccccc1 [Example 97, N-(2-(3-(Dimethylamino)propoxy)-3-fluoro-5-(3′-methyl-2′-oxo-2′,3′-dihydrospiro[cyclopropane-1,1′-pyrrolo[2,3-c]quinolin]-8′-yl)phenyl)benzenesulfonamide]	1 to 100 nM	1 to 100 nM	–	–
Cc1cc(S(=O)(=O)Nc2cc(-c3ccc4ncc5c(c4c3)C3(CCC3)C(=O)N5C)cnc2OCCCN2CCCCC2)sn1 [Example 194, 3-Methyl-N-(5-(3′-methyl-2′-oxo-2′,3′-dihydrospiro[cyclobutane-1,1′-pyrrolo[2,3-c]quinolin]-8′-yl)-2-(3-(piperidin-1-yl)propoxy)pyridin-3-yl)isothiazole-5-sulfonamide hydrochloride]	1 to 100 nM	< 0.5 nM	–	–
CN(C)CCCOc1ncc(-c2ccc3ncc4c(c3c2)C2(CC2)C(=O)N4C)cc1NS(C)(=O)=O [Example 64, N-(2-(3-(Dimethylamino)propoxy)-5-(3′-methyl-2′-oxo-2′,3′-dihydrospiro[cyclopropane-1,1′-pyrrolo[2,3-c]quinolin]-8′-yl)pyridin-3-yl) methanesulfonamide]	1 to 100 nM	< 0.5 nM	–	–
CN(C)CCCOc1ccc(-c2ccc3ncc4c(c3c2)C2(CC2)C(=O)N4C)cn1 [Example 1, 8′-(6-(3-(Dimethylamino)propoxy)pyridin-3-yl)-3′-methylspiro [cyclopropane-1,1′-pyrrolo[2,3-c]quinolin]-2′(3′-H)-one]	1 to 100 nM	1 to 100 nM	–	–
CCS(=O)(=O)Nc1cc(-c2cc3c4c(cnc3cc2F)N(C)C(=O)C42CN(C(C)C)C2)cnc1OCCNC(C)C [Example 483]	–	–	1 to 100 nM	0.5 to 1 nM
